# Read-outs that look alike come from different tables or passages of the source.
# Key:
# [1] = cited from earlier work
# [2] = room temperature and standard pressure; cited from earlier work
# [3] = pKa / acid form of lactic acid; type: physicochemical; conditions: at a pH of 2.2
# Excerpt: In some example embodiments, the pH of the anti-allergen formulations can be kept low. A low pH can enhance the organic acid efficacy (e.g., lactic acid efficacy) in neutralization of airborne allergens. Typically, pH is kept a least 1 unit below pKa of the organic acid to ensure majority (at least 90%) of acid stays in the active (conjugate acid) form. […].
SMILES,Solubility in water [1],Vapor Pressure [2] [Pa],Solubility in water ([1]; at ~20° C.),lactic acid in the acidic form [3]
CCCCCC(=O)O [hexanoic acid],1.03 g of compound in 100 g of water,5.80,,
C/C=C/C=C/C(=O)O [sorbic acid],,0.018,0.156 g of compound in 100 g of water,
O=C(O)CC(O)(CC(=O)O)C(=O)O [citric acid],,0.000002,,
CCC(=O)O [propionic acid],,390,,
CCCCC(=O)O [valeric acid],,100,3.75 g of compound in 100 g of water,
CCCCCCC(=O)O [heptanoic acid],,1.35,0.2 g of compound in 100 g of water,
CCCCCCCC(=O)O [octanoic acid],,0.49,,
O=C(O)CC(O)C(=O)O (stereo not drawn) [malic acid],,0.000004,64.7 g of compound in 100 g of water,
O=C(O)CO [glycolic acid],,0.41,,
CS(=O)(=O)O [methane sulfonic acid],,0.048,100 g of compound in 100 g of water,
CC(=O)CCC(=O)O [levulinic acid],,0.374,79.13 g of compound in 100 g of water,
O=C(O)CCCCC(=O)O [adipic acid],,9.70,,
CCCC(=O)O [butyric acid],,100,,
O=C(O)/C=C/C(=O)O [fumaric acid],,,0.7 g of compound in 100 g of water,
CC(O)C(=O)O (stereo not drawn) [lactic acid],,10.00,,at least 95%
O=C(O)/C=C\C(=O)O [maleic acid],,,47.88 g of compound in 100 g of water,
O=C(O)CC(=O)O [malonic acid],,0.00049,,
O=C(O)c1ccccc1 [benzoic acid],,0.11,,
CC(=O)O [acetic acid],,2080,,
NCC(=O)O [glycine],,0.000017,,
CC(=O)C(=O)O [pyruvic acid],,172,100 g of compound in 100 g of water,
